Data taken from patent US20090192137A1, “Dialysis method” (AstraZeneca AB, priority 1993, published 2009).

How the values were obtained:
[1] = Pig study: concentration of melagatran in plasma and dialysis outlet during dialysis; assay type: in vivo
Protocol: Two Swedish Land Race pigs weighing 59 and 57 kg respectively were used. Anaesthesia was induced using Ketaminol® (10 mg/kg, i.m. Veterinaria AG, Switzerland) and Dormicum® (1 to 2 mg/kg, i.m. Roche, Basel, Switzerland), followed by, after 20 minutes, Diprivan® ([…] i.v. Zeneca Limited, Macclesfield, Cheshire, United Kingdom), intubated and ventilated at 15 cycles/minute with air containing 2 to 3% Forene® (Abbott Scandinavia AB, Kista. Sweden) using a Servo Ventilator 900C (Siemens Elema, Solna, Sweden).
(§1) The anaesthetised pigs were subjected to bilateral ligation of renal arteries and veins using lateral flank approaches. The wounds were then closed and the animals were placed on their backs. Two catheters (Kimal, K41/3B/LL, Uxbridge, England) were inserted into the right femoral artery and vein for connection to the dialysis equipment. The artery catheter was used to provide blood to (efferent blood line), and the vein catheter to receive blood from (afferent blood line), the dialysis filter. One polyethylene catheter (Intramedic PE-200, Clay Adams, Parsippany, N.J., USA) was inserted into an artery (right saphenous in pig A and brachial in pig B) for blood pressure (MAP) recording (transducer Peter von Berg Medizintechnik GmbH, Kirchseeon/Eglharting, Germany) and for blood samples, pH and blood gas measurements.
(§2) Before the start of dialysis, the LunDia Pro 600 dialysis filter (Gambro, Lund, Sweden) was primed on both sides for 15 minutes with Biosol A201.5 glucose (Pharmalink, Solna, Sweden) dialysis concentrate diluted 1:35 using a Gambro AK-100 (Grambro. Lund, Sweden) haemodialysis equipment (see FIG. 5). The dialysis concentrate was supplemented with melagatran (35 μM; thus providing 1 μM after dilution). The flow rate was adjusted to 500 mL/min on the dialysing solution side and to 250 mL/min on the blood side of the membrane by separate pumps. Pressure was measured (transducer Peter von Berg Medizintechnik) on both sides of the dialysis membrane.
(§3) Before connection of the efferent and afferent blood lines, 20 mL (300 mg/mL) of iohexol (Omnipaque®, Nycomed AB, Lidingö, Sweden) was administered in the ear vein to monitor filter clearance. Two minutes before the start of dialysis, 0.15 μmol/kg of melagatran was given via the right femoral vein as a bolus.
After connection of blood lines and two minutes after the administration of the melagatran bolus dose, dialysis was started and carried out for 3 hours. Then, the procedure was interrupted, the blood lines disconnected and the filter and blood lines washed by pumping saline instead of blood to check for the presence of macroscopic blood clots.
The amount of melagatran in plasma was quantified using liquid chromatographic and mass spectrometric methods (BA-285, AstraZeneca R&D, Mölndal, Sweden).

thrombin [2] = target: T1, thrombin (Sus scrofa, UniProt Q19AZ8); details: during dialysis session
Protocol: For the determination of activated partial thromboplastin time (APTT), ecarin clotting time (ECT) and the amount of melagatran in plasma, twelve aliquots of blood were drawn at specific time points into plastic tubes containing one volume of 0.13 M sodium citrate. Plasma was recovered after immediate centrifugation (10,000 g for 5 minutes) and stored at −20° C. prior to analysis.
APTT was determined using a KC10 A micro coagulometer (Amelung, Lemago, Germany). 25 μL of citrate plasma was incubated with 25 μL of PTT-Automate reagent (Diagnostica Stago, Asnieres, France) for 3 minutes. Coagulation was started using 25 μL of 0.025 M CaCl2 (Diagnostica Stago, Asniéres. France) and the time taken to the start of coagulation was measured.

[3] = tested on: anaesthetised pigs without kidney function; assay: Pig study: prevention of coagulation and maintained filter function during haemodialysis; assay type: in vivo
Text: The aim of this study was to test whether melagatran, given via the dialysing solution during dialysis could prevent coagulation and allow a maintained filter function throughout the session in acute experiments with anaesthetised pigs without kidney function.
To avoid very early thrombotic occlusion of blood lines and filters, which, if observed, would have prevented the drawing of meaningful conclusions regarding the utility of the method, an i.v. bolus dose of melagatran was given immediately before the start of extracorporeal blood circulation in these experiments.
as §1
as §2, with “membrane. […]” for “membrane.”

thrombin [4] = target: T1, thrombin; details: TAS equipment, during dialysis session
Protocol: For the determination of activated partial thromboplastin time (APTT), ecarin clotting time (ECT) and the amount of melagatran in plasma, twelve aliquots of blood were drawn at specific time points into plastic tubes containing one volume of 0.13 M sodium citrate. Plasma was recovered after immediate centrifugation (10,000 g for 5 minutes) and stored at −20° C. prior to analysis. For the determination of the amount of iohexol in plasma, blood was drawn in heparinized tubes, centrifuged is (10,000 g for 5 minutes) and stored at −20° C. prior to analysis.
ECT was determined in 30 μL citrate plasma using a TAS device (Thrombolytic Assessment System, Cardiovascular Diagnostics Inc., Raleigh, N.C.) and appropriate solid reagent test cards, as recommended.

[5] = Pig study: clearance of iohexol to monitor filter clearance; assay type: in vivo; details: Swedish Land Race, plasma and dialysing solution, intravenous, 6000 mg, dialysis filter clearance, measured every half-hour, two experiments
Protocol: as §3
Amounts of iohexol in plasma and dialysing solution were determined at the Laboratory of the Division of Nephrology (Sahlgren's University Hospital, Gothenberg, Sweden) using a Reanalyzer PRX 90 (Provalid AB Lund, Sweden).

SMILES	concentration at 2 min ([1]; Swedish Land Race, pig, plasma, iv, 0.15 μmol/kg, start of dialysis, 2 minutes after i.v. bolus dose, both pigs, read-out: concentration of melagatran in plasma (efferent blood)) [nM]	time to equilibration ([1]; acutely anuric pig)	concentration of melagatran in the dialysis outlet, higher than on the blood side ([1]; except the very first sample at the start of dialysis)	concentration of melagatran in plasma, level-off ([1]; over the first ˜0 minutes of dialysis, then quite constant, dialysing solution 1 μM expected)	APTT times, relation to melagatran concentration (thrombin [2])	macroscopic thrombi in filters and tubing after dialysis ([3]; 3 hour dialysis, both pigs, washed with saline over 15 minutes)	filter function ([3]; judged from iohexol clearance, 3 hours of dialysis)	pressure in the efferent blood-line ([3]; one pig, 3 hour dialysis, stable)	ecarin clotting times (ECT), relation to drug concentration in plasma (thrombin [4])	clearance [5] [mL/min]
N=C(N)c1ccc(CNC(=O)[C@@H]2CCN2C(=O)[C@H](NCC(=O)O)C2CCCCC2)cc1 [melagatran, HOOC—CH2—(R)Cgl-Aze-Pab-H]	900 to 1000	within one hour	about 0.2 μM	about 0.25 μM	proportional to the logarithm of melagatran concentration	macroscopic thrombi had not been formed	filter function was maintained over the full 3 hours of dialysis	about 275 mm Hg	closely reflected drug concentrations in plasma	
CC(=O)N(CC(O)CO)c1c(I)c(C(=O)NCC(O)CO)c(I)c(C(=O)NCC(O)CO)c1I (stereo not shown) [iohexol]										~150
